Assay results published in patent US11427558B1, “Indazoles and azaindazoles as LRRK2 inhibitors” (ESCAPE Bio, Inc., priority 2019, dated 2022).

How the values were obtained:
[1] = target: Recombinant G2019S-LRRK2 protein (Homo sapiens (Human), UniProt Q5S007, G2019S); assay: LRRK2 kinase activity, LanthaScreen TR-FRET assay (G2019S); assay type: biochemical; settings: LRRKtide 400 nM, 25 μM ATP, 60 min
Method in brief: (§1)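 Recombinant human wild-type or G2019S LRRK2 phosphorylated fluorescein-labelled LRRKtide (ERM-based) with ATP and serially diluted compound for 60 min at room temperature.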

[2] = target: Recombinant wild type LRRK2 protein (Homo sapiens (Human), UniProt Q5S007); assay: LRRK2 kinase activity, LanthaScreen TR-FRET assay (wild type); assay type: biochemical; settings: LRRKtide 400 nM, 25 μM ATP, 60 min; read-out: LRRK2 WT IC50
Sequence of Recombinant wild type LRRK2 protein (Q5S007 whole entry): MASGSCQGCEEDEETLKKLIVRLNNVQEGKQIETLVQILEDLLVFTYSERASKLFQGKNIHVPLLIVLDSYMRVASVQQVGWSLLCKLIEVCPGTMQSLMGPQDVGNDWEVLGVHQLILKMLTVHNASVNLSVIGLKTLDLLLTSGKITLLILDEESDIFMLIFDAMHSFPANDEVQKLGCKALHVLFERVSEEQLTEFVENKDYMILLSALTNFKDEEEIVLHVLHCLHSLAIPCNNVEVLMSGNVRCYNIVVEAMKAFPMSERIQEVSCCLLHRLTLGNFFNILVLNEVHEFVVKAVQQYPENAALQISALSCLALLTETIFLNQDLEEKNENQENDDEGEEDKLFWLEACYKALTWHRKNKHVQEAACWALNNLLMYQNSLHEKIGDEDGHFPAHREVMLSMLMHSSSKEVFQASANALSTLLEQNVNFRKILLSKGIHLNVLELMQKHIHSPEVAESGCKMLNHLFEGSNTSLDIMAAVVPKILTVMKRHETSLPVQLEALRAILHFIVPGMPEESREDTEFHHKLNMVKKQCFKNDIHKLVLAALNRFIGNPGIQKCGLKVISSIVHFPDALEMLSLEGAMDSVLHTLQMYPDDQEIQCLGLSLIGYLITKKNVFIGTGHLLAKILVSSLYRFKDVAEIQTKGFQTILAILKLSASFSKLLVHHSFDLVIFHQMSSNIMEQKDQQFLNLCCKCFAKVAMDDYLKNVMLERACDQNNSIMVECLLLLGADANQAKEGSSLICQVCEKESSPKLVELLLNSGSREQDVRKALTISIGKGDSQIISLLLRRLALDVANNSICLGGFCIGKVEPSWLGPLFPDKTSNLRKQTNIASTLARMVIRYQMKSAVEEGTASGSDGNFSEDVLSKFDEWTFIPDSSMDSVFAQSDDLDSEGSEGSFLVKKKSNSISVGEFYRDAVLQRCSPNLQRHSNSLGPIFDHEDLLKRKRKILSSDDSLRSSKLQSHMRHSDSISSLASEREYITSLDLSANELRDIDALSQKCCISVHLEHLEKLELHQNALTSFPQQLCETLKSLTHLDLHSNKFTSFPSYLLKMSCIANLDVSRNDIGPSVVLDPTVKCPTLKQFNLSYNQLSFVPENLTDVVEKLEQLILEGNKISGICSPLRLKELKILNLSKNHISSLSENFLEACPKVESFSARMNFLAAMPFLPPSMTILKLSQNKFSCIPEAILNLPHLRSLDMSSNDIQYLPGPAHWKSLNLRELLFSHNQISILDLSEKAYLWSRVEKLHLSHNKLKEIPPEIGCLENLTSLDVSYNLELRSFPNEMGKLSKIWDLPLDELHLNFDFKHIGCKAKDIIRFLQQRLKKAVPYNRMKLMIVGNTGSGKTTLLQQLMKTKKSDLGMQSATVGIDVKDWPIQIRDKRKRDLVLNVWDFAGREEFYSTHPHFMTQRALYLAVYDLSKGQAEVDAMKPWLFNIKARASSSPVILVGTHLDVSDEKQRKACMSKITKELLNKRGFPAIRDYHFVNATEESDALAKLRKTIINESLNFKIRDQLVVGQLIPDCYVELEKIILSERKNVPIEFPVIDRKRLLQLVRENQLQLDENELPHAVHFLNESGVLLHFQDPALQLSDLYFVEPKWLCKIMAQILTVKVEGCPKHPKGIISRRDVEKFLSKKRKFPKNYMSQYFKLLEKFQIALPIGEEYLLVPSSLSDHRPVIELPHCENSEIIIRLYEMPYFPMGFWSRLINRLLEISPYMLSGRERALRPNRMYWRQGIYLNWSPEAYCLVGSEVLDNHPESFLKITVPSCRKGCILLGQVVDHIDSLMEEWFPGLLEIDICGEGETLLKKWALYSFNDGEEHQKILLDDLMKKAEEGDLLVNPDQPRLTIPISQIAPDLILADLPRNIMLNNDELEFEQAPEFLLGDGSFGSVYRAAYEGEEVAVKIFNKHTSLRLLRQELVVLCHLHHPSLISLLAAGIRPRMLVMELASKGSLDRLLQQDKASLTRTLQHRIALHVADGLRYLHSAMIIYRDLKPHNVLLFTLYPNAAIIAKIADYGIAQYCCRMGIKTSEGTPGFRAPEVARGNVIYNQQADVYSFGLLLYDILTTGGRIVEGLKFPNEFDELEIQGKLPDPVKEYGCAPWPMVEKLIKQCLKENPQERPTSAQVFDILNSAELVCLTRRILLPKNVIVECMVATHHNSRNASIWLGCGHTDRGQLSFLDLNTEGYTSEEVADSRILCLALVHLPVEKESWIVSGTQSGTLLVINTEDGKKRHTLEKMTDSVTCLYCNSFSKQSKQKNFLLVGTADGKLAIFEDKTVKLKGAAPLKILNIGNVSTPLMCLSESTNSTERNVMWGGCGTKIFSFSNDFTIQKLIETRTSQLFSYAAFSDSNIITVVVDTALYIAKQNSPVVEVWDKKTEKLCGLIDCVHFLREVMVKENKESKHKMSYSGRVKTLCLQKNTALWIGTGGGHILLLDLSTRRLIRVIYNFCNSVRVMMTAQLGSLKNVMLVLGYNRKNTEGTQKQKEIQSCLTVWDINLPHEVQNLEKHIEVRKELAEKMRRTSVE
Method in brief: as §1

Sequence of Recombinant G2019S-LRRK2 protein (Q5S007 whole entry G2019S): as the sequence (Q5S007 whole entry) above, with G2019S counted along it

| SMILES | IC50 [1] | IC50 [2] |
| --- | --- | --- |
| COc1c(C#N)cnc(C(=O)Nc2ccc3[nH]nc(-c4cnoc4)c3c2)c1C [Example 226, 5-Cyano-N-(3-(isoxazol-4-yl)-1H-indazol-5-yl)-4-methoxy-3-methylpicolinamide] | < 100 nM | < 100 nM |
| Cc1c(C#N)cnc(C(=O)Nc2ccc3[nH]nc(-c4cncs4)c3c2)c1C [Example 227, 5-Cyano-3,4-dimethyl-N-(3-(thiazol-5-yl)-1H-indazol-5-yl)picolinamide] | < 100 nM | < 100 nM |
| COc1c(C#N)ccnc1C(=O)Nc1ccc2[nH]nc(-c3cnoc3)c2c1 [Example 228, 4-Cyano-N-(3-(isoxazol-4-yl)-1H-indazol-5-yl)-3-methoxypicolinamide] | < 100 nM | 100 to 1000 nM |
| Cc1cc(-c2n[nH]c3ccc(NC(=O)c4ncc(C#N)c(C)c4C)cc23)on1 [Example 229, 5-Cyano-3,4-dimethyl-N-(3-(3-methylisoxazol-5-yl)-1H-indazol-5-yl)picolinamide] | < 100 nM | < 100 nM |
| Cc1c(C#N)cnc(C(=O)Nc2ccc3[nH]nc(-c4ccncn4)c3c2)c1C [Example 230, 5-Cyano-3,4-dimethyl-N-(3-(pyrimidin-4-yl)-1H-indazol-5-yl)picolinamide] | < 100 nM | 100 to 1000 nM |
| CCc1c(C#N)ccc(F)c1C(=O)Nc1ccc2[nH]nc(-c3cnco3)c2c1 [Example 231, 3-Cyano-2-ethyl-6-fluoro-N-(3-(oxazol-5-yl)-1H-indazol-5-yl)benzamide] | < 100 nM | < 100 nM |
| CCc1c(C(=O)Nc2ccc3[nH]nc(-c4cnco4)c3c2)ccnc1C#N [Example 232, 2-Cyano-3-ethyl-N-(3-(oxazol-5-yl)-1H-indazol-5-yl)isonicotinamide] | < 100 nM | < 100 nM |
| Cc1c(C#N)cnc(C(=O)Nc2ccc3[nH]nc(/C=C/C4CC4)c3c2)c1C [Example 233, (E)-5-Cyano-N-(3-(2-cyclopropylvinyl)-1H-indazol-5-yl)-3,4-dimethylpicolinamide] | < 100 nM | < 100 nM |
| COc1c(C#N)ccc(C)c1C(=O)Nc1ccc2[nH]nc(-c3cnco3)c2c1 [Example 234, 3-Cyano-2-methoxy-6-methyl-N-(3-(oxazol-5-yl)-1H-indazol-5-yl)benzamide] | < 100 nM | < 100 nM |
| Cc1cc(-c2n[nH]c3ccc(NC(=O)c4ncc(C#N)cc4C)cc23)on1 [Example 235, 5-Cyano-3-methyl-N-(3-(3-methylisoxazol-5-yl)-1H-indazol-5-yl)picolinamide] | < 100 nM | < 100 nM |
| Cc1ccc(C#N)c(F)c1C(=O)Nc1ccc2[nH]nc(-c3cnoc3)c2c1 [Example 236, 3-Cyano-2-fluoro-N-(3-(isoxazol-4-yl)-1H-indazol-5-yl)-6-methylbenzamide] | < 100 nM | < 100 nM |
| Cc1nccc(-c2n[nH]c3ccc(NC(=O)c4ncc(C#N)c(C)c4C)cc23)n1 [Example 237, 5-Cyano-3,4-dimethyl-N-(3-(2-methylpyrimidin-4-yl)-1H-indazol-5-yl)picolinamide] | < 100 nM | < 100 nM |
| Cc1c(C#N)cnc(C(=O)Nc2cc3c(-c4cnco4)n[nH]c3cn2)c1C [Example 238, 5-Cyano-3,4-dimethyl-N-(3-(oxazol-5-yl)-1H-pyrazolo[3,4-c]pyridin-5-yl)picolinamide] | < 100 nM | 100 to 1000 nM |
| Cc1c(C#N)nn(C)c1C(=O)Nc1ccc2[nH]nc(-c3cnco3)c2c1 [Example 239, 3-Cyano-1,4-dimethyl-N-(3-(oxazol-5-yl)-1H-indazol-5-yl)-1H-pyrazole-5-carboxamide] | 100 to 1000 nM | < 100 nM |
| Cc1c(C#N)cnc(C(=O)Nc2ccc3[nH]nc(-c4cn(C)nn4)c3c2)c1C [Example 240, 5-Cyano-3,4-dimethyl-N-(3-(1-methyl-1H-1,2,3-triazol-4-yl)-1H-indazol-5-yl)picolinamide] | < 100 nM | 100 to 1000 nM |
| Cc1cc(C#N)cnc1C(=O)Nc1ccc2[nH]nc(-c3cn(C)nn3)c2c1 [Example 241, 5-Cyano-3-methyl-N-(3-(1-methyl-1H-1,2,3-triazol-4-yl)-1H-indazol-5-yl)picolinamide] | 100 to 1000 nM | 100 to 1000 nM |
| Cc1cc(C#N)cnc1C(=O)Nc1ccc2[nH]nc(-n3ccoc3=O)c2c1 [Example 242, 5-Cyano-3-methyl-N-(3-(2-oxooxazol-3(2H)-yl)-1H-indazol-5-yl)picolinamide] | < 100 nM | 1000 to 10000 nM |
| CC(C)=Cc1n[nH]c2ccc(NC(=O)c3ncc(C#N)c(C)c3C)cc12 [Example 243, 5-Cyano-3,4-dimethyl-N-(3-(2-methylprop-1-en-1-yl)-1H-indazol-5-yl)picolinamide] | < 100 nM | 100 to 1000 nM |
| Cc1c(C#N)cnc(C(=O)Nc2ccc3[nH]nc(/C=C/c4ccccc4)c3c2)c1C [Example 244, (E)-5-Cyano-3,4-dimethyl-N-(3-styryl-1H-indazol-5-yl)picolinamide] | < 100 nM | < 100 nM |

| SMILES | IC50 [1] | IC50 [2] |
| --- | --- | --- |
| C/C=C/c1n[nH]c2ccc(NC(=O)c3ncc(C#N)c(C)c3C)cc12 [Example 245, (E)-5-cyano-3,4-dimethyl-N-(3-(prop-1-en-1-yl)-1H-indazol-5-yl)picolinamide] | < 100 nM | 100 to 1000 nM |
| Cc1c(C#N)cn(C)c1C(=O)Nc1ccc2[nH]nc(-c3cnoc3)c2c1 [Example 246, 4-Cyano-N-(3-(isoxazol-4-yl)-1H-indazol-5-yl)-1,3-dimethyl-1H-pyrrole-2-carboxamide] | < 100 nM | < 100 nM |
| Cn1cc(C#N)cc1C(=O)Nc1ccc2[nH]nc(-c3cnoc3)c2c1 [Example 247, 4-Cyano-N-(3-(isoxazol-4-yl)-1H-indazol-5-yl)-1-methyl-1H-pyrrole-2-carboxamide] | < 100 nM | < 100 nM |
| Cc1c(C#N)cnc(C(=O)Nc2ccc3[nH]nc(/C=C/c4ccccn4)c3c2)c1C [Example 248, (E)-5-Cyano-3,4-dimethyl-N-(3-(2-(pyridin-2-yl)vinyl)-1H-indazol-5-yl)picolinamide] | < 100 nM | < 100 nM |
| COc1cc(C(=O)Nc2ccc3[nH]nc(-c4cnco4)c3c2)ncc1C#N [Example 249, 5-Cyano-4-methoxy-N-(3-(oxazol-5-yl)-1H-indazol-5-yl)picolinamide] | < 100 nM | 100 to 1000 nM |
| C=C(C)c1cc(C#N)cnc1C(=O)Nc1ccc2[nH]nc(-c3cnco3)c2c1 [Example 250, 5-Cyano-N-(3-(oxazol-5-yl)-1H-indazol-5-yl)-3-(prop-1-en-2-yl)picolinamide] | < 100 nM | < 100 nM |
| CC(C)c1cc(C#N)cnc1C(=O)Nc1ccc2[nH]nc(-c3cnco3)c2c1 [Example 251, 5-Cyano-3-isopropyl-N-(3-(oxazol-5-yl)-1H-indazol-5-yl)picolinamide] | < 100 nM | 100 to 1000 nM |
| Cc1c(C#N)cnc(C(=O)Nc2ccc3[nH]nc([C@@H]4CC4c4ccccc4)c3c2)c1C (stereo partly drawn) [Example 252, 5-Cyano-3,4-dimethyl-N-(3-((1R)-2-phenylcyclopropyl)-1H-indazol-5-yl)picolinamide] | < 100 nM | 100 to 1000 nM |
| Cc1cc(C#N)cnc1C(=O)Nc1ccc2[nH]nc(N3CCC3)c2c1 [Example 253, N-(3-(Azetidin-1-yl)-1H-indazol-5-yl)-5-cyano-3-methylpicolinamide] | 100 to 1000 nM | 1000 to 10000 nM |
| Cc1cc(C#N)cnc1C(=O)Nc1ccc2[nH]nc(N3CC(F)(F)C3)c2c1 [Example 254, 5-Cyano-N-(3-(3,3-difluoroazetidin-1-yl)-1H-indazol-5-yl)-3-methylpicolinamide] | 100 to 1000 nM | 1000 to 10000 nM |
| Cc1cc(C#N)cnc1C(=O)Nc1ccc2[nH]nc(OCc3ccccc3)c2c1 [Example 255, N-(3-(Benzyloxy)-1H-indazol-5-yl)-5-cyano-3-methylpicolinamide] | < 100 nM | 100 to 1000 nM |
| Cc1cc(C#N)cnc1C(=O)Nc1ccc2[nH]nc(C3COC3)c2c1 [Example 256, 5-Cyano-3-methyl-N-(3-(oxetan-3-yl)-1H-indazol-5-yl)picolinamide] | 1000 to 10000 nM | 1000 to 10000 nM |
| Cc1c(C#N)cnc(C(=O)Nc2ccc3[nH]nc(C4CC4(C)C)c3c2)c1C (centres unmarked) [Example 257, 5-Cyano-N-(3-(2,2-dimethylcyclopropyl)-1H-indazol-5-yl)-3,4-dimethylpicolinamide] | 1000 to 10000 nM | 1000 to 10000 nM |
| COc1cc(C(=O)Nc2ccc3[nH]nc(-c4cnco4)c3c2)nc(C)c1C#N [Example 258, 5-Cyano-4-methoxy-6-methyl-N-(3-(oxazol-5-yl)-1H-indazol-5-yl)picolinamide] | < 100 nM | 1000 to 10000 nM |
| Cc1c(C#N)cnc(C(=O)Nc2ccc3[nH]nc(C=C4CCN(C(=O)OC(C)(C)C)CC4)c3c2)c1C [Example 259, tert-butyl 4-((5-(5-Cyano-3,4-dimethylpicolinamido)-1H-indazol-3-yl)methylene)piperidine-1-carboxylate] | > 10000 nM | > 10000 nM |
| Cc1c(C#N)cnc(C(=O)Nc2ccc3[nH]nc(C=C4CCNCC4)c3c2)c1C [Example 260, 5-Cyano-3,4-dimethyl-N-(3-(piperidin-4-ylidenemethyl)-1H-indazol-5-yl)picolinamide] | 1000 to 10000 nM | > 10000 nM |
| Cc1c(C#N)cnc(C(=O)Nc2ccc3[nH]nc(/C=C4/CCOC4)c3c2)c1C [Example 261, (Z)-5-Cyano-N-(3-((dihydrofuran-3(2H)-ylidene)methyl)-1H-indazol-5-yl)-3,4-dimethylpicolinamide] | < 100 nM | 1000 to 10000 nM |
| Cc1c(C#N)cnc(C(=O)Nc2ccc3[nH]nc(C=C4CCOCC4)c3c2)c1C [Example 262, 5-Cyano-3,4-dimethyl-N-(3-((tetrahydro-4H-pyran-4-ylidene)methyl)-1H-indazol-5-yl)picolinamide] | 1000 to 10000 nM | 1000 to 10000 nM |
